These results are taken from PubChem BioAssay AID1996.

≈ marks a conversion by molar mass, not a printed value.

For the data set the following is noted: buffer; pH 7.4; 200.0 µM.
Take `O=C(Nc1cc(S(=O)(=O)N2CCOCC2)ccc1N1CCCCC1)c1ccccc1Br`: the kinetic solubility turned out to be 6.1 µg/mL (≈ 12 µM). The value for `Cc1ccc(S(=O)(=O)N2CC=C(C(=O)NCCC(C)C)CC2)cc1` was 41.7 µg/mL (≈ 119 µM); that for `CC(=O)c1c(C)[nH]c(C(=O)OCC(=O)N(Cc2ccccc2)C(C)(C)C)c1C` was 12 µg/mL (≈ 31.2 µM).

For `CCN1C(=O)C(=O)N(CC(=O)Nc2cc(C)ccc2C)C1=O`, the solubility (kinetic) was greater than 45.5 µg/mL. The value for `COc1ccccc1CCC(=O)Oc1ccccc1C#N` was 16.6 µg/mL (≈ 59 µM); that for `CCCC(=O)Nc1sc(Cc2ccccc2)c(C)c1C(N)=O` was 6.9 µg/mL (≈ 21.8 µM).

Take `O=c1[nH]c(-[n+]2ccccc2)c(/C=N/N=C(\[O-])c2ccccc2)s1`: the solubility (kinetic) was greater than 48.7 µg/mL. The value for `Cc1ccc(C(=O)Nc2ccc(CN3CCS(=O)(=O)CC3)cc2)cc1C` was 42.7 µg/mL (≈ 115 µM). The value for `CC1C(=O)C(C)(C)C(=O)OC1c1ccc([N+](=O)[O-])cc1` (centres undefined) was 12.4 µg/mL (≈ 44.7 µM); that for `O=C(OCCCN1CCOCC1)c1ccc(O)c(O)c1` was greater than 42.2 µg/mL. The value for `O=C(O)c1ccc(N=Cc2nc(-c3ccco3)oc2O)cc1` was greater than 44.7 µg/mL; that for `Cc1ccc(OCC(=O)Nc2ccccc2F)cc1C` was 3.2 µg/mL (≈ 11.7 µM); that for `Cc1cccc(NC(=O)Nc2ccc(S(N)(=O)=O)cc2)c1` was 22.1 µg/mL (≈ 72.4 µM). `COc1ccc(CCNC(=O)c2noc(C)c2[N+](=O)[O-])cc1OC` yielded a solubility (kinetic) greater than 50.3 µg/mL.

Take `COC(=O)c1sccc1NS(=O)(=O)c1ccccc1`: the kinetic solubility is 40.5 µg/mL (≈ 136 µM). The value for `Cc1cc(CNC(=O)c2ccc(C)c([N+](=O)[O-])c2)c2ccccc2n1` was 20.1 µg/mL (≈ 59.9 µM).

`O=C(Cn1nc(C(F)F)cc1C1CC1)N1CCCC1`: the kinetic solubility is greater than 40.4 µg/mL. The value for `NS(=O)(=O)c1ccc(CCNC(=O)Cc2cccs2)cc1` was 31.8 µg/mL (≈ 98 µM).

In turn, `Cc1ccc(C(=O)OCC(=O)N2CCCC2)cc1` showed a kinetic solubility of 32.7 µg/mL (≈ 132 µM).

`Cc1cnc(C(=O)NCc2ccc(F)cc2)cn1` came in with a solubility (kinetic) greater than 36.8 µg/mL. For `COc1ccc(S(=O)(=O)N2CCN(c3ccccn3)CC2)c(OC)c1`, the kinetic solubility worked out at 52.1 µg/mL (≈ 143 µM). The value for `O=C(CCC1CCCCC1)NC1CCCCC1` was 16.6 µg/mL (≈ 69.9 µM).

`O=S(=O)(NC(=S)NC1CCCCC1)c1ccccc1` returned a solubility (kinetic) of 44 µg/mL (≈ 147 µM). The value for `COc1ccc(CCNC(=O)COC(=O)c2cnc(Cl)c(Cl)c2)cc1` was 5.4 µg/mL (≈ 14.1 µM).

Regarding `O=[N+]([O-])c1ccc(C2NS(=O)(=O)N=C3CCCCCN32)cc1` (centres undefined), the solubility (kinetic) was greater than 48.7 µg/mL. The value for `CCn1c(C)nc2cc(C(=O)OC)ccc21` was greater than 32.7 µg/mL.

Molecule `Cc1cc(NC(=O)CN(C)CC(=O)Nc2ccc(Cl)cc2)no1` had a solubility (kinetic) greater than 50.5 µg/mL. The value for `Cc1[nH]c2ccccc2c1C(=O)CN1C(=O)C(=O)N(C2CCCC2)C1=O` was 3.2 µg/mL (≈ 9.06 µM). The value for `N#Cc1cccc(C#N)c1NCC1CCCO1` (centres undefined) was greater than 34.1 µg/mL; that for `CCOc1ccc(OCc2ccc(C(=O)N3CCCCC3)o2)cc1` was greater than 49.4 µg/mL; that for `NS(=O)(=O)c1cccc(NC(=O)CSc2nc3ccccc3c(=O)n2Cc2ccco2)c1` was 6.4 µg/mL (≈ 13.6 µM). The value for `O=S(=O)(c1ccc(Cl)nc1)N1CCCC1` was greater than 37 µg/mL; that for `COc1ccc(CCNC(=O)C(C)OC(=O)c2cccs2)cc1OC` (centres undefined) was 49 µg/mL (≈ 135 µM). Regarding `CC(C)(C)NC(=O)NCCc1ccccc1`, the solubility (kinetic) was 30 µg/mL (≈ 136 µM).

`COc1ccccc1Cn1c(=S)[nH]c2ccc(F)cc2c1=O` yielded a kinetic solubility of 1.6 µg/mL (≈ 5.06 µM). The value for `CC(C)(C)NC(=O)NCc1ccco1` was greater than 29.4 µg/mL.

The molecule `CC(NC(=O)CCc1ccccc1)c1ccc2c(c1)OCO2` (centres undefined) registered a solubility (kinetic) of 42 µg/mL (≈ 141 µM).

In the case of `CC(C)NCC(O)COc1cccc2ccccc12.Cl` (centres undefined), the solubility (kinetic) is greater than 44.4 µg/mL. For the molecule `Cc1cc(NC(=O)CC(C)C)c(=O)n(Cc2cccc(F)c2)c1`, the solubility (kinetic) was 43.7 µg/mL (≈ 138 µM).

`Cc1cc(C(=O)NCCC(C)C)c2ccccc2n1` registered a kinetic solubility of 31 µg/mL (≈ 121 µM). The value for `COc1ccccc1NCC(=O)c1ccc(Cl)cc1` was 4.7 µg/mL (≈ 17 µM); that for `CC1=C(C(=O)OC2CCCCC2)C(c2ccc(F)cc2)NC(=O)N1` (centres undefined) was 31.2 µg/mL (≈ 93.9 µM); that for `COc1ccc2nc(C)c(C(N)=O)cc2c1` was greater than 32.4 µg/mL. With `N#Cc1nc(-c2ccc([N+](=O)[O-])cc2)oc1N1CCCCC1`, the solubility (kinetic) turned out to be 1.3 µg/mL (≈ 4.36 µM). The value for `CC1(C)C2CCC1(CS(=O)(=O)Nc1ccccc1)C(=O)C2` (centres undefined) was 42.8 µg/mL (≈ 139 µM). The value for `COc1ccc(-c2csc(NC(=O)CN3C(=O)C4CC=CCC4C3=O)n2)cc1OC` (centres undefined) was 16 µg/mL (≈ 37.4 µM). The value for `Nc1nc(C2CCOCC2)cs1` was greater than 27.6 µg/mL; that for `COc1cc(Br)c(CN2CCCN(C)CC2)cc1OC` was 44.2 µg/mL (≈ 129 µM).

With `O=S(=O)(Nc1ncnc2sccc12)c1cccc(F)c1`, the kinetic solubility is greater than 46.4 µg/mL.

In turn, `CCSc1nc2ccccc2n1CC(=O)O` displayed a solubility (kinetic) greater than 35.4 µg/mL. In turn, `CCCNC(=O)c1oc2ccc3c(c2c1C)C=CC(C)(C)O3` returned a kinetic solubility of 14.2 µg/mL (≈ 47.4 µM). Molecule `COc1ccccc1NC(=O)c1ccc2nc(C)c(C)nc2c1` returned a solubility (kinetic) of 16.3 µg/mL (≈ 53 µM). The value for `OC1/C(=C/c2ccccc2F)N2CCC1CC2` (centres undefined) was greater than 35 µg/mL; that for `COc1ccc(CCNc2ncccc2C#N)cc1OC` was greater than 42.5 µg/mL; that for `COc1ccccc1S(=O)(=O)c1c(C)cc(C)[nH]c1=O` was greater than 44 µg/mL. The value for `COCCSc1nnc(NC(=O)c2ccco2)s1` was greater than 42.8 µg/mL; that for `COc1ccc(NC(=O)Nc2c[nH]c(=O)[nH]c2=O)cc1` was 10 µg/mL (≈ 36.2 µM); that for `Cc1nc(N2CCOCC2)nc(N2CCC(C)CC2)c1[N+](=O)[O-]` was 12.6 µg/mL (≈ 39.2 µM).

As for `Cc1ccc(CNC(=S)Nc2cc(C)ccc2OC(F)F)cc1`, the kinetic solubility turned out to be 4.7 µg/mL (≈ 14 µM).

The molecule `COc1ccc(CN2C(=O)c3ccccc3C2OC)cc1` (centres undefined) showed a solubility (kinetic) greater than 42.5 µg/mL. As to `CN(CCC#N)C(=O)c1cc2c(s1)-c1ccccc1SC2`, the solubility (kinetic) came to 24.9 µg/mL (≈ 79.2 µM). The value for `COc1ccc(CC(=O)NC2CCCc3ccccc32)cc1` (centres undefined) was 15.8 µg/mL (≈ 53.5 µM); that for `Cc1ncc(CN2CCCC(C(=O)c3sccc3C)C2)s1` (centres undefined) was 37.4 µg/mL (≈ 117 µM).

Consider `Cc1cccc2sc(NS(=O)(=O)c3ccccc3)nc12`, for which the solubility (kinetic) was greater than 45.7 µg/mL. The value for `O=C1c2ccccc2C(=O)N1S(=O)(=O)c1ccccc1` was greater than 43.1 µg/mL.

Consider `COc1ccc(CCNCc2sccc2C)cc1OC.Cl`, for which the solubility (kinetic) was determined as 36 µg/mL. The value for `O=C(CSc1nnc2ccccn12)NC(=O)c1ccccc1Cl` was greater than 52 µg/mL; that for `Cc1ccc2nc(N3CCN(CCO)CC3)nc(-c3ccccc3)c2c1` was greater than 52.3 µg/mL; that for `O=C(COC(=O)c1ccc2c(c1)OCO2)Nc1ccccc1F` was 6.3 µg/mL (≈ 19.9 µM). The value for `CC(Cc1ccccc1)NC(=O)c1cc2ccccc2o1` (centres undefined) was 30.5 µg/mL (≈ 109 µM); that for `O=C(NCCC(=O)N1CCc2ccccc21)c1ccco1` was greater than 42.6 µg/mL; that for `CCCc1cc(=O)[nH]c(SCC(=O)Nc2nonc2C)n1` was greater than 46.4 µg/mL. The molecule `COc1cccc(OC)c1C(=O)Nc1ccc(N2CCCC2)cc1` registered a solubility (kinetic) of 46.9 µg/mL (≈ 144 µM). For the molecule `CCn1c(=O)c2ccccc2n(Cc2ccc([N+](=O)[O-])cc2)c1=O`, the kinetic solubility is 5.6 µg/mL (≈ 17.2 µM). The value for `Cc1cc(=O)oc2c(CN3CCN(CCO)CC3)c(O)ccc12` was greater than 47.8 µg/mL; that for `Cl.Oc1ccccc1CNCC12CC3CC(CC(C3)C1)C2` was greater than 46.2 µg/mL. `Cc1cnc(NC(=O)Cc2ccccc2Cl)s1` returned a solubility (kinetic) of 1.1 µg/mL (≈ 4.12 µM). The value for `CCc1nc2ccccc2c(C(=O)NCc2ccc(OC)cc2)c1C` was 47.9 µg/mL (≈ 143 µM). `COc1cc(-c2cc(C(=O)Nc3cc(S(=O)(=O)N4CCOCC4)ccc3O)c3ccccc3n2)cc(OC)c1OC` gave a solubility (kinetic) of 3.3 µg/mL (≈ 5.69 µM). The value for `OC[C@H]1O[C@@H](n2cnc3c(Nc4ccccc4)ncnc32)[C@H](O)[C@@H]1O` was greater than 51.5 µg/mL; that for `CCCC(=O)OCC(=O)Nc1ccc2[nH]c(=O)[nH]c2c1` was greater than 41.6 µg/mL; that for `O=C(CNC(=O)OCc1ccccc1)Nc1ccc(F)cc1` was 10.3 µg/mL (≈ 34.1 µM). Take `O=C(Cn1c(=O)oc2ccccc21)NCC1COc2ccccc2O1` (centres undefined): the kinetic solubility was greater than 51.1 µg/mL.

As for `Brc1cc(-c2ccccc2)nc(-c2ccccc2)n1`, the kinetic solubility was less than 0.3 µg/mL. `Fc1ccc(CNCCc2c[nH]c3ccccc23)cc1` yielded a kinetic solubility greater than 40.2 µg/mL. The value for `O=C(CCl)Nc1c2c(nn1-c1ccccc1)CSC2` was greater than 44.1 µg/mL; that for `Cc1ccc(OCC(=O)Nc2ccc(CN3CCOCC3)cc2)cc1` was 27.8 µg/mL (≈ 81.7 µM). Regarding `O=C1[C@@H]2C(c3ccc(F)cc3)=NO[C@@H]2C(=O)N1Cc1ccccc1`, the solubility (kinetic) stood at 7.8 µg/mL (≈ 24.1 µM). The value for `CCc1ccc(OC)c(-c2csc(N)n2)c1` was greater than 35.1 µg/mL; that for `N#Cc1cnn2cc(CCN3CCOCC3)c(-c3ccc(F)cc3)nc12` was greater than 52.7 µg/mL; that for `CC(NC(=O)CN1CCN(C(=O)c2cccs2)CC1)c1ccc(F)cc1F` (centres undefined) was greater than 59 µg/mL. The value for `Cc1cc(C)c(NC(=O)Nc2ccccc2C)c(Cl)c1` was 0.8 µg/mL (≈ 2.77 µM); that for `COc1ccc2nccnc2c1[N+](=O)[O-]` was greater than 30.8 µg/mL. The value for `COc1cccc(N2CC(C)Cn3c2nc2c3c(=O)[nH]c(=O)n2C)c1` (centres undefined) was 22.7 µg/mL (≈ 66.5 µM); that for `O=C(Nc1ccc2ccccc2c1)c1cccc([N+](=O)[O-])c1` was less than 0.3 µg/mL. `CCC(=O)OC1(c2ccccc2)C(C)CN(C)CC1C.Cl` (centres undefined): the kinetic solubility is greater than 46.8 µg/mL. The value for `Cc1nc2cc(NC(=O)N3CCCC3)ccc2n1C` was 29.4 µg/mL (≈ 114 µM); that for `CC1CC(OCC(O)CN2CCCCC2C)CC(C)(C)C1.Cl` (centres undefined) was greater than 50.1 µg/mL.

Turning to `CCOC(=O)Nc1cccc(OCC(=O)Nc2ccc3c(c2)CCC3)c1`, the kinetic solubility was 5.2 µg/mL (≈ 14.7 µM). `COc1ccc(CC(=O)Nc2nccs2)cc1S(=O)(=O)N1CCOCC1`: the kinetic solubility is greater than 59.6 µg/mL. Molecule `COc1ccc(OC)c(C(=O)c2coc3ccc(O)c(CN(C)C)c23)c1.Cl` registered a solubility (kinetic) greater than 58.8 µg/mL. The value for `COc1ccc(CNCc2ccncc2)cc1OC.Cl` was greater than 44.2 µg/mL. The value for `C=CCn1c(O)c(C(CC)=NCC2CCCO2)c(=O)[nH]c1=O` (centres undefined) was greater than 46.1 µg/mL; that for `O=C(Nc1ccccc1F)NC1CCCc2ccccc21` (centres undefined) was 2 µg/mL (≈ 7.03 µM).
